According to patent US4272437A, “Antibacterial agents, and 4-thio azetidinone intermediates” (priority 1979, dated 1981):
Values after ≈ are worked out from the molar mass of the structure shown. Read-outs that look alike come from different tables or passages of the source.

Key:
Str. pneumoniae A-9585 = test: MIC, tube dilution, Streptococcus pneumoniae A9585; format: cell-based; conditions: Streptococcus pneumoniae, A9585, Str. pneumoniae A9585; overnight 37° C., Nutrient Broth; read-out: Minimum Inhibitory Concentration (M.I.C.)
Excerpt: (§1) Representative compounds of the present invention were subjected to in vitro antibiotic screening against a variety of microorganisms.

Ps. aeruginosa A-21213 = test: MIC, tube dilution, Pseudomonas aeruginosa A21213; format: cell-based; conditions: overnight 37° C., read-out: Minimum Inhibitory Concentration (M.I.C.)
Excerpt: as §1

[1] = tested on: Staph. aureus (Meth-Res) A-15097; test: MIC, tube dilution, Staphylococcus aureus A15097 (Meth-Res); format: cell-based; conditions: Staphylococcus aureus, overnight 37° C.
Excerpt: as §1

[2] = tested on: Staph. aureus A-9537 and 50% serum; test: MIC, tube dilution, Staph. aureus A9537 + 50% serum; format: cell-based, Staphylococcus aureus; conditions: Staphylococcus aureus, overnight 37° C., read-out: Minimum Inhibitory Concentration (M.I.C.)
Excerpt: as §1

[3] = tested on: Staph. aureus (Pen-Res) A-9606; test: MIC, tube dilution, Staphylococcus aureus A9606 (Pen-Res); format: cell-based; conditions: Staphylococcus aureus, Staph. aureus A9606 (Pen-Res); overnight 37° C.; read-out: Minimum Inhibitory Concentration (M.I.C.)
Excerpt: as §1

E. coli A-15119 = test: MIC, tube dilution, Escherichia coli A15119; format: cell-based; conditions: Escherichia coli, A15119, E. coli A15119; overnight 37° C.; read-out: Minimum Inhibitory Concentration (M.I.C.)
Excerpt: as §1

Ps. aeruginosa A-9843A = test: MIC, tube dilution, Pseudomonas aeruginosa A9843A; format: cell-based; conditions: Pseudomonas aeruginosa, A9843A, read-out: Minimum Inhibitory Concentration (M.I.C.), Pseudomonas aeruginosa A9843A; overnight 37° C.
Excerpt: as §1

Ent. cloacae A-9659 = test: MIC, tube dilution, Enterobacter cloacae A9659; format: cell-based; conditions: Enterobacter cloacae, A9659, Enterobacter cloacae A9659; overnight 37° C.; read-out: Minimum Inhibitory Concentration (M.I.C.)
Excerpt: as §1

Ser. marcescens A-20019 = test: MIC, tube dilution, Serratia marcescens A20019; format: cell-based; conditions: Serratia marcescens, A20019, Serratia marcescens A20019; overnight 37° C.; read-out: Minimum Inhibitory Concentration (M.I.C.)
Excerpt: as §1

[4] = tested on: Klebsiella species A20468; test: MIC, tube dilution, Klebsiella species A20468; format: cell-based; conditions: Klebsiella species (K. pneumoniae) A20468; overnight 37° C.; read-out: Minimum Inhibitory Concentration (M.I.C.)
Excerpt: as §1

K. pneumoniae A-15130 = test: MIC, tube dilution, Klebsiella pneumoniae A15130; format: cell-based; conditions: Klebsiella pneumoniae, A15130, K. pneumoniae A15130; overnight 37° C.; read-out: Minimum Inhibitory Concentration (M.I.C.)
Excerpt: as §1

Str. pyogenes A-9604 = test: MIC, tube dilution, Streptococcus pyogenes A9604; format: cell-based; conditions: Streptococcus pyogenes, A9604, Str. pyogenes A9604; overnight 37° C., Nutrient Broth; read-out: Minimum Inhibitory Concentration (M.I.C.)
Excerpt: as §1

E. coli A-20341-1 = test: MIC, tube dilution, Escherichia coli A20341-1; format: cell-based
Excerpt: as §1

Staph. aureus A-9537 = test: MIC, tube dilution, Staphylococcus aureus A9537; format: cell-based; conditions: Staphylococcus aureus, A9537, Staph. aureus A9537; overnight 37° C., Nutrient Broth; read-out: Minimum Inhibitory Concentration (M.I.C.)
Excerpt: as §1

Pr. morganii A-15153 = test: MIC, tube dilution, Proteus morganii A15153; format: cell-based; conditions: Morganella morganii, A15153, Proteus morganii A15153; overnight 37° C.; read-out: Minimum Inhibitory Concentration (M.I.C.)
Excerpt: as §1

Pr. vulgaris A-9716 = test: MIC, tube dilution, Proteus vulgaris / Proteus mirabilis A9716; format: cell-based, Proteus vulgaris (name changed to Proteus mirabilis); conditions: Proteus vulgaris, A9716, Proteus vulgaris / Proteus mirabilis A9716; overnight 37° C.; read-out: Minimum Inhibitory Concentration (M.I.C.)
Excerpt: as §1

Ent. cloacae A-9656 = test: MIC, tube dilution, Enterobacter cloacae A9656; format: cell-based; conditions: Enterobacter cloacae, A9656, Enterobacter cloacae A9656; overnight 37° C.; read-out: Minimum Inhibitory Concentration (M.I.C.)
Excerpt: as §1

Proteus rettgeri A21203 = test: MIC, tube dilution, Proteus rettgeri A21203; format: cell-based; conditions: Providencia rettgeri, A21203, Proteus rettgeri A21203; overnight 37° C.; read-out: Minimum Inhibitory Concentration (M.I.C.)
Excerpt: as §1

Pr. mirabilis A-9900 = test: MIC, tube dilution, Proteus mirabilis A9900; format: cell-based; conditions: Proteus mirabilis, A9900, Proteus mirabilis A9900; overnight 37° C.; read-out: Minimum Inhibitory Concentration (M.I.C.)
Excerpt: as §1

Str. faecalis A-20688 = test: MIC, tube dilution, Streptococcus faecalis A20688; format: cell-based; conditions: Enterococcus faecalis, A20688, Str. faecalis A20688; overnight 37° C.; read-out: Minimum Inhibitory Concentration (M.I.C.)
Excerpt: as §1

Proteus vulgaris A21559 = test: MIC, tube dilution, Proteus vulgaris A21559; format: cell-based; conditions: Proteus vulgaris, A21559, Proteus vulgaris A21559; overnight 37° C.; read-out: Minimum Inhibitory Concentration (M.I.C.)
Excerpt: as §1

[5] = Pseudomonas aeruginosa, A21213, Pseudomonas aeruginosa A21213
[6] = Staph. aureus A15097 (Meth-Res), read-out: Minimum Inhibitory Concentration (M.I.C.)
[7] = Escherichia coli, A203411, E. coli A20341-1; overnight 37° C.; read-out: Minimum Inhibitory Concentration (M.I.C.)

| SMILES | MIC (Str. pneumoniae A-9585) [µg/mL] | MIC [2] [µg/mL] | MIC [3] [µg/mL] | MIC (E. coli A-15119) [µg/mL] | MIC (Ps. aeruginosa A-9843A) [µg/mL] | MIC (Ent. cloacae A-9659) [µg/mL] | MIC (Ser. marcescens A-20019) [µg/mL] | MIC [4] [µg/mL] | MIC (K. pneumoniae A-15130) [µg/mL] | MIC (Str. pyogenes A-9604) [µg/mL] | MIC (Staph. aureus A-9537) [µg/mL] | MIC (Pr. morganii A-15153) [µg/mL] | MIC (Ent. cloacae A-9656) [µg/mL] | MIC (Proteus rettgeri A21203) [µg/mL] | MIC (Pr. mirabilis A-9900) [µg/mL] | MIC (Str. faecalis A-20688) [µg/mL] | MIC (Ps. aeruginosa A-21213; [5]) [µg/mL] | MIC [1, 6] [µg/mL] | MIC (E. coli A-20341-1; [7]) [µg/mL] | MIC (Proteus vulgaris A21559) [µg/mL] | other results |
| --- | --- | --- | --- | --- | --- | --- | --- | --- | --- | --- | --- | --- | --- | --- | --- | --- | --- | --- | --- | --- | --- |
| Cn1cc(C2=C(C(=O)O)N3C(=O)CC3S2)cn1 (centres unmarked) [Example 15] | 0.13 (≈ 0.517 µM) | > 63 | 32 (≈ 127 µM) | 16 (≈ 63.7 µM) | 125 (≈ 497 µM) | 125 (≈ 497 µM) | 63 (≈ 251 µM) | > 125 | 125 (≈ 497 µM) | 0.5 (≈ 1.99 µM) | 1 (≈ 3.98 µM) | 63 (≈ 251 µM) | 63 (≈ 251 µM) | 16 (≈ 63.7 µM) | 16 (≈ 63.7 µM) | 63 (≈ 251 µM) |  |  |  |  | MIC (Ps. aeruginosa A-21213; Pseudomonas aeruginosa A21213): 125 µg/mL (≈ 497 µM); MIC ([1]; read-out: Minimum Inhibitory Concentration (M.I.C.), Staph. aureus A15097 (Meth-Res)): 125 µg/mL (≈ 497 µM); MIC (E. coli A-20341-1; Escherichia coli, A203411; E. coli A20341-1; overnight 37° C.; read-out: Minimum Inhibitory Concentration (M.I.C.)): > 125 µg/mL; MIC (Pr. vulgaris A-9716): 16 µg/mL (≈ 63.7 µM) |
| NCCSCC1=C(C(=O)O)N2C(=O)CC2S1 (centres unmarked) [Example 88, 2-(2-Aminoethylthiomethyl)penem-3-carboxylic Acid] | 0.13 (≈ 0.499 µM) | 0.5 | 16 (≈ 61.5 µM) | 4 (≈ 15.4 µM) | 63 (≈ 242 µM) | 32 (≈ 123 µM) | 8 (≈ 30.7 µM) | > 63 | 8 (≈ 30.7 µM) | 0.13 (≈ 0.499 µM) | 0.13 (≈ 0.499 µM) | 8 (≈ 30.7 µM) | 32 (≈ 123 µM) | 8 (≈ 30.7 µM) | 4 (≈ 15.4 µM) | 63 (≈ 242 µM) | > 63 | 16 (≈ 61.5 µM) | 16 (≈ 61.5 µM) | 16 (≈ 61.5 µM) |  |
| CCC(N)CC1=C(C(=O)O)N2C(=O)CC2S1 (centres unmarked) [Example 100, 2-(2'-Aminobutyl)-penem-3-carboxylic Acid] | 0.25 (≈ 1.03 µM) | 8 | > 32 | 4 (≈ 16.5 µM) | > 32 | 16 (≈ 66 µM) | 8 (≈ 33 µM) | > 32 | 16 (≈ 66 µM) | 0.25 (≈ 1.03 µM) | 0.25 (≈ 1.03 µM) | 16 (≈ 66 µM) | 8 (≈ 33 µM) | 8 (≈ 33 µM) | 8 (≈ 33 µM) | > 32 | > 32 | > 32 | 32 (≈ 132 µM) | 16 (≈ 66 µM) |  |
| NCC[S+]([O-])CC1=C(C(=O)O)N2C(=O)C[C@H]2S1 (some centres unmarked) [Example 101, 2-(2-Aminoethylsulfinylmethyl) penem-3-carboxylic Acid] | 0.5 (≈ 1.81 µM) | 4 | 4 (≈ 14.5 µM) | 8 (≈ 28.9 µM) | 63 (≈ 228 µM) | 32 (≈ 116 µM) | 32 (≈ 116 µM) | > 63 | 32 (≈ 116 µM) | 0.5 (≈ 1.81 µM) | 0.5 (≈ 1.81 µM) | 16 (≈ 57.9 µM) | 63 (≈ 228 µM) | 16 (≈ 57.9 µM) | 8 (≈ 28.9 µM) | > 63 | 63 (≈ 228 µM) | 63 (≈ 228 µM) | 32 (≈ 116 µM) | 16 (≈ 57.9 µM) |  |
